# Results from paper PMC12363518, “Azobenzene-Modified Temperature-Responsive Short Elastin-like Peptides for Photo-Controlled Phase Transition” (ACS Synthetic Biology, 2025).
# Numbered stars: 1 amine (or outer) side, 2 acyl side, 3 side chain; on linkers, the order of the positions; unused ones are H or OH. Bridge positions count the residues as written; N and C are the ends. Peptide text beside a SMILES is read from it. I, II: the chains in the order shown. X1 = O=C(c1ccc(N=Nc2ccc(C(=O)[*:2])cc2)cc1)[*:1]
# Legend:
# [1] = Turbidity measurement (OD600) of temperature-dependent phase separation, Tt; type: physicochemical
# Experimental: The ability of the ELP–azobenzene conjugates to self-assemble was investigated by using turbidity measurements. In addition, we evaluated whether the photoisomerization of the azobenzene moieties induced differences in the aggregation ability of these analogues. Each peptide analogue was dissolved in PBS at different concentrations according to its water solubility. To quantitatively evaluate the aggregation ability, the transition temperature (T t) of the peptides was calculated from the change in optical density at a wavelength of 600 nm (OD600) associated with the increasing temperature (Table and Figure ).
# The temperature-dependent self-assembly property of synthesized peptides was evaluated by using a JASCO V-660 spectral photometer (JASCO Co.). Each peptide was dissolved in PBS buffer or phosphate buffer solutions at various concentrations. Three types of phosphate buffers with the same ionic strength (μ = 0.100) but different pH (pH 7.4, 2.1, and 11.5) were prepared: phosphate buffer (pH 7.4, 29.4 mM Na2HPO4, 11.7 mM NaH2PO4), phosphate buffer (pH 2.1, 10.0 mM NaH2PO4, 10.5 mM phosphoric acid), and phosphate buffer (pH 11.5, 9.58 mM Na3PO4, 14.2 mM Na2HPO4). Turbidity was measured at 600 nm with increasing or decreasing temperature at a rate of 0.5 °C/min from 5 °C. The measurements were performed for the dark-adapted solution and after successive irradiation with UV light, visible light, and UV light. Each assay was repeated three times with different peptide solutions that were prepared separately. The phase separation property was described by the phase transition temperature (T t), which is the temperature at which the turbidity of the solution reaches half its maximum value.
# [2] = Optical / fluorescence microscopy of coacervates and Rhodamine B-loaded aggregates; type: physicochemical
# Experimental: To investigate the morphological properties of the ELP–azobenzene conjugates, a PBS solution of Azb-2(K-F2) was observed by using optical microscopy at different temperatures under light-protected conditions. The Azb-2(K-F2) solution was almost homogeneous at 25 °C (Figure A). However, spherical coacervates of the peptide emerged at 35 °C and then rapidly matured into larger particles with diameters of several micrometers by increasing the temperature to 37 °C (Figure B,C). These particles stably exist under dark conditions (Figure D).
# Azb-2(K-F2) was further studied to determine whether the chemical release from the peptide aggregates could be controlled by light irradiation. Azb-2(K-F2) and Rhodamine B (a red fluorescent dye) were heated in PBS to form coacervates, and a stable pellet of the aggregate was obtained by centrifugation. This pellet was composed of Azb-2(K-F2) coacervates containing rhodamine B with diameters of several micrometers, as shown in Figure . The structure of the obtained sample was observed over time by using optical and fluorescence microscopy under irradiation with monochromatic light at a wavelength of 365 nm (Figure ). Before light irradiation, the peptide aggregate containing Rhodamine B was observed as a red-colored amorphous structure with a size of approximately 600–700 μm. When irradiated with UV-A light, spherical particles (several micrometers in diameter) leaked from the surface of the aggregates and the red dye diffused accordingly. This dissociation process was considered to be the reverse of the stepwise phase separation in which ELP formed submicron-ordered aggregates and then matured to larger aggregates with diameters of several micrometers. […] In contrast, the peptide aggregate containing Rhodamine B was stable at 37 °C in the absence of UV-A light (Figure S12).
# The morphology of the coacervates of the ELP–azobenzene conjugate Azb-2(K-F2) was observed by optical microscopy. The light field observation was performed using a Leica DM IL LED (Leica Microsystems CMS, Wetzlar, Germany) equipped with HI PLAN 40× (Leica Microsystems CMS), HC PLAN 10× (Leica Microsystems CMS), and a Leica EL6000 external light source (Leica Microsystems CMS). Azb-2(K-F2) was dissolved in PBS buffer at a concentration of 3 mg/mL. Sample imaging was performed at 25, 35, and 37 °C by using a Thermo Plate TP-CHSQM (Tokai Hit Co., Ltd., Shizuoka, Japan). […]
# A time-course observation of Azb-2(K-F2) aggregates in the presence of a fluorescent dye was also performed. To the Azb-2(K-F2) solution (in phosphate buffer, pH 7.4, 3 mg/mL) was added Rhodamine B at a final concentration of 50 μM. The resulting solution was incubated at 37 °C for 4 h. Then, the solution was centrifuged for 20 s (6200 rpm) to obtain an aggregate of the peptide as a red pellet. The obtained peptide aggregate was washed with PBS buffer (37 °C, 50 μL, three times) and was used to make a prepared slide. Time-dependent observation of the prepared sample was carried out at 37 °C under irradiation with 365 nm monochromatic light.
smiles,measurement,setting,value
CC(C)[C@H](NC(=O)CNC(=O)[C@@H]1CCCN1C(=O)[C@H](Cc1ccccc1)NC(=O)CNC(=O)[C@@H](NC(=O)CNC(=O)[C@@H]1CCCN1C(=O)[C@H](Cc1ccccc1)NC(=O)[C@H](CCCCN)NC(=O)c1ccc(N=Nc2ccc(C(=O)N[C@@H](CCCCN)C(=O)N[C@@H](Cc3ccccc3)C(=O)N3CCC[C@H]3C(=O)NCC(=O)N[C@H](C(=O)NCC(=O)N[C@@H](Cc3ccccc3)C(=O)N3CCC[C@H]3C(=O)NCC(=O)N[C@H](C(=O)NCC(=O)O)C(C)C)C(C)C)cc2)cc1)C(C)C)C(=O)NCC(=O)O [Azb-2(K-F2)] (I: KFPGVGFPGVG-OH / II: KFPGVGFPGVG-OH; linker I:N-II:N via X1),peak wavelength n–π*,,430 nm
same,"Tt,UV (phase transition temperature)","[1]; after ""UV"" conditions 1 h, PBS pH 7.4, OD600, 0.5 °C/min, Tt at half-maximal turbidity, concentrations as in Table 2, n = 3",35.08 ± 0.30 °C
same,"Tt,UV–vis (phase transition temperature)","[1]; after ""UV–vis"" conditions 1 h, PBS pH 7.4, OD600, 0.5 °C/min, Tt at half-maximal turbidity, concentrations as in Table 2, n = 3",32.55 ± 0.67 °C
same,"Tt,UV–vis–UV (phase transition temperature)","[1]; after ""UV–vis–UV"" conditions 1 h, PBS pH 7.4, OD600, 0.5 °C/min, Tt at half-maximal turbidity, concentrations as in Table 2, n = 3",35.94 ± 1.15 °C
same,"Tt, UV in phosphate buffer (PB)","[1]; after UV irradiation, PB pH 7.4 (ionic strength 0.100), 3.00 mg/mL (1.27 mM), OD600",31.42 ± 0.78 °C
same,"Tt, dark in phosphate buffer (PB)","[1]; dark-adapted, PB pH 7.4 (ionic strength 0.100), Azb-2(K-F2) 3.00 mg/mL (1.27 mM), 2(D-F2)-Azb 1.50 mg/mL (0.66 mM), OD600",27.57 ± 0.18 °C
same,"Tt,dark (phase transition temperature)","[1]; dark-adapted, PBS pH 7.4, OD600, 0.5 °C/min from 5 °C, Tt at half-maximal turbidity, F2-Azb-F2 100 μM, F2-Azb-F2-NH2 50 μM, Azb-2(K-F2) 1.27 mM, 2(F2-D)-Azb 0.66 mM, n = 3 separately prepared solutions",32.09 ± 0.14 °C
same,phase separation in acidic phosphate buffer,"[1]; phosphate buffer pH 2.1, Azb-2(K-F2) 1.27 mM, 2(F2-D)-Azb 0.66 mM, turbidity OD600",did not show phase separation
same,phase separation in neutral phosphate buffer,"[1]; phosphate buffer pH 7.4, Azb-2(K-F2) 1.27 mM, 2(F2-D)-Azb 0.66 mM, turbidity OD600",underwent thermoresponsive phase separation
same,phase separation in basic phosphate buffer,"[1]; phosphate buffer pH 11.5, Azb-2(K-F2) 1.27 mM, 2(F2-D)-Azb 0.66 mM, turbidity OD600",did not show phase separation
same,aggregate containing Rhodamine B without UV-A light,"[2]; 37 °C, absence of UV-A light (Figure S12)",stable
same,aggregate containing Rhodamine B under continued UV-A irradiation,"[2]; optical and fluorescence microscopy, 37 °C, 365 nm monochromatic light, Rhodamine B 50 μM at loading",completely collapsed
same,coacervate particles after UV-A irradiation,"[2]; optical microscopy, 3 mg/mL in PBS, 37 °C, UV-A 365 nm for 5 min",particles disappeared
same,coacervate particles after subsequent room light,"[2]; optical microscopy, 3 mg/mL in PBS, 37 °C, room light 5 min after UV-A",spherical aggregates reappeared
same,temperature at which spherical coacervates emerged,"[2]; optical microscopy, 3 mg/mL in PBS, light-protected",35 °C
